Assay results: PMC11843613, “Further Optimization of the mGlu1 PAM VU6024578/BI02982816: Discovery and Characterization of VU6033685” (ACS Chemical Neuroscience, 2025)

How the values were obtained:
striatal DA release = experiment: Electrically evoked striatal DA release in brain slices (fast scanning cyclic voltammetry); conditions: 10 μM DHPG alone, mouse slices
Method: into the home cage. The arena is then cleaned with 70% ethanol in between animals. The day of the test the animals are habituated to the dosing room for 2 hours. The animals were administered VU6024578 (1-10 mg/kg p.o.) or vehicle (10% Tween 80) and were placed back into their homecage for 60 min. The animals were then injected with MK-801 (0.075 mg/kg 1 ml/kg s.c.) and placed back in the homecage for 30 min. The animals are then placed into the arena with two identical familiar objects for ten minutes and then placed back into the home cage. The animals are then placed back into the arena with one of the familiar objects replaced with a novel object at 120 min after the familiar object exposure. The activity of the animals are recorded and the time spent exploring each of the objects is scored by a blinded observer. Recognition index is determined by subtracting […] divided by total time spent exploring.
Brain Slice Preparation and Fast Scanning Cyclic Voltammetry: […]
Electrically-evoked dopamine overflow was monitored with carbon fiber electrodes as previously reported (Foster et al. 2014). […]

[1] = design: method as in PMID 39665415; conditions: cited from earlier work
human mGlu1 = target: T1, human mGlu1 (Homo sapiens, UniProt Q13255); design: method as in PMID 39665415; conditions: previously reported compound; cited from earlier work
T1 construct: expressed in transfected cells; pcDNA5/TO)

[2] = system: amphetamine-induced hyperlocomotion in rats; design: method as in PMID 39665415; conditions: cited from earlier work

T1 sequence (Q13255 19-1194): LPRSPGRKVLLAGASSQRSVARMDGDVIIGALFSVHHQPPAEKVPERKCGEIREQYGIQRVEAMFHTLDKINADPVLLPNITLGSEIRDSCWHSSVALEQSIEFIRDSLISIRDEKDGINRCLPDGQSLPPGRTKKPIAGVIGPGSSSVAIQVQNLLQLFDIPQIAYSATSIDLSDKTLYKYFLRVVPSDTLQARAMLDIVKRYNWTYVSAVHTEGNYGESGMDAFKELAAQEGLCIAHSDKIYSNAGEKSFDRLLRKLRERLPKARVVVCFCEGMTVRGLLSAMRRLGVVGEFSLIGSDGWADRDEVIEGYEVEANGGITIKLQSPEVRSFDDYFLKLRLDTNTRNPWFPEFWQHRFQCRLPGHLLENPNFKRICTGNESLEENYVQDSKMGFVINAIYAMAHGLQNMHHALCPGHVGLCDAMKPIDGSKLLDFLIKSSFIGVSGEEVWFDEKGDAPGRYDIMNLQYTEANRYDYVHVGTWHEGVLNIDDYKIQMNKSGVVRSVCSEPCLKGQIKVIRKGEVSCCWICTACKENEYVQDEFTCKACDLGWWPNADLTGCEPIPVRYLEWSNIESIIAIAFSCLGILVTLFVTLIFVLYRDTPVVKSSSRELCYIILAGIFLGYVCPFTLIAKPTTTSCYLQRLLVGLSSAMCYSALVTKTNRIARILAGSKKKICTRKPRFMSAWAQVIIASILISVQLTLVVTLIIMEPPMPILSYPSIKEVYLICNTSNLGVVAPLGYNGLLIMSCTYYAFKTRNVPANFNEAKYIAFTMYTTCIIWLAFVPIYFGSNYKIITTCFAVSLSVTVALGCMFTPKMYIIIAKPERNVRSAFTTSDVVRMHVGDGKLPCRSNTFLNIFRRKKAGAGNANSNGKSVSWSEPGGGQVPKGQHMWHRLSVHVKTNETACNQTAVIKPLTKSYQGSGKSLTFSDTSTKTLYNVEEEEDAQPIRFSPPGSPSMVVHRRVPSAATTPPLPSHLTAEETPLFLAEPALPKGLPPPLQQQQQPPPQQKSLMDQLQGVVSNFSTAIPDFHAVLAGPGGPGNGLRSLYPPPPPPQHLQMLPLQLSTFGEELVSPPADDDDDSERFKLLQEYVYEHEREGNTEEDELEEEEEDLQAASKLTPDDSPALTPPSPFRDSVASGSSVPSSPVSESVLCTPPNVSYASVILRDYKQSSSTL

Row | Structure (SMILES) | effect on striatal DA release, agonist alone (striatal DA release) | species with adverse events [1] | mGlu1 Glumax of 3 (human mGlu1) | unbound brain level as fold of rat mGlu1 EC50 at which AHL was reversed [2]
1 | N[C@H](C(=O)O)c1cc(O)cc(O)c1 [DHPG, (S)-3,5-dihydroxyphenylglycine, reference compound] | did not produce a significant inhibition of striatal DA release |  |  | 
2 | Cn1nc(-c2ccnn2C)cc1CNC(=O)c1cc(-c2ccco2)ccc1Cl [compound 3] |  | only exhibited AEs in dogs | 83% | ~0.7 fold
